The target of series [1] is T1, P450RAI-3 (Homo sapiens, UniProt Q6V0L0, F447L).
T1 sequence (Q6V0L0 1-522 F447L): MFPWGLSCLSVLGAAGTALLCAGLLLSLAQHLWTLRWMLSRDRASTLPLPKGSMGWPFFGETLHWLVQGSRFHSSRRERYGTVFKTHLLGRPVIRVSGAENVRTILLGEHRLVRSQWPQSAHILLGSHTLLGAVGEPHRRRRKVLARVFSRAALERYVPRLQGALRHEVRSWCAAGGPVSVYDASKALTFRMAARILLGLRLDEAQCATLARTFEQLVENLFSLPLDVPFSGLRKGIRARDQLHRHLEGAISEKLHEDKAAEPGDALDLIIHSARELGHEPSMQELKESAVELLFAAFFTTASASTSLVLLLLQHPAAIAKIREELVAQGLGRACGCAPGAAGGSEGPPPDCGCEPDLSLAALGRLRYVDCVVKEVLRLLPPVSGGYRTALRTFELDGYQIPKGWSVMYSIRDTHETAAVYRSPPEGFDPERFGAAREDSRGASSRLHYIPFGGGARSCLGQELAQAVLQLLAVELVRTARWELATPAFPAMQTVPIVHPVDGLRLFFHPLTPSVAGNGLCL
The series can be described thus: [3H]-RA-metabolism inhibition in mammalian microsomes from transient P450RAI-3-transfected Cos cells. Details: expressed in transfected cells; host or cells: COS-1 (transient, pcDNA-P450RAI-3, Fugene). Format: biochemical. The note with it: read-out: ID50 (nM) P450RAI-3. As for the experimental part:
RA-metabolism activity was assessed using RA-metabolism microsomes-based assay and Bligh Dyer extraction as follows: Using an automatic repeating-pipette, gently thawed and homogenized microsomes were plated in a 48-well plate in final volume of 150 μl of storage buffer containing 0.5 mg/ml BSA. At indicated concentration 2 μl of compound solution was added to the assay and 2 μl of DMSO was added to MS control (quadruplet) and No-MS control. 50 μl of [^3H]-RA solution (30,000 cpm, 2 nM final concentration) was added. The microsomes assay with the compounds and the [^3H]-ATRA were incubated first for 10 min at 37° C., and then the reaction started by adding 20 μl of NADPH solution (or 1 mM final). After 1-hour incubation the reaction was stopped by adding 5 μl of 10% acetic acid. Organic and aqueous soluble radio-labelled metabolites were extracted using the Bligh-Dyer procedure. Saturated activity obtained in presence of NADPH at 5 μg of microsomes, FIG. 14.
Microsomes prepared from either stable Hela-CYP26-B or transient P450RAI-3-transfected Cos cells were used.

Series [2] deals with T1, P450RAI-3. The experiment in a line: RA-metabolism cell based assay in P450RAI-3-infected Sf9 cells. Details: expressed in transfected cells. The note with it: 2 nM [3H]-RA. As for the experimental part:
Recombinant baculovirus expressing either P450RAI-3 or CYP26B (Bac-P450RAI-3 or Bac-CYP26B or CYP26B) was prepared and titrated by end-point dilution and infection of Sf9 cells in 96-well format. Baculovirus expressing vector was co-transfected into Sf9-insect cells. Infected cells were assessed for RA-metabolism after 72 hours post transfection using RA-metabolism cell based assay as follows: the RA-metabolism reaction was started by adding 50 μl of [^3H]-RA solution (20000 cpm, 2 nM final concentration) using an automatic repeating-pipette.
Cells were incubated for 3 hours. The reaction was stopped by adding 5 μl of 10% acetic acid. Organic and aqueous soluble radio-labelled metabolites were extracted using the Bligh-Dyer procedure.

For series [3], the target named is T1, P450RAI-3. The experiment in a line: [3H]-RA-metabolism inhibition in Sf9-Bac-P450RAI-3 insect microsomes. Format: biochemical. The note with it: 2 nM [3H]-RA, NADPH, 1 hour, read-out: ID50 (nM) Sf9-P450RAI-3. As for the experimental part:
Microsomes from P450RAI-3 and CYP26B infected Sf-9 cells were made as follows: exponentially growing cells were harvested, washed with ice-cold PBS, counted then homogenized and sonicated in lysis buffer containing protease inhibitors cocktail (10^8 cells par 5 ml lyses buffer). Since P450RAI-3 is a microsomal cytochrome, it preferably uses NADPH cytochromic P450 reductase and a flavoprotein for activity. The microsomes were isolated by differential centrifugations (10 min at 800×g, than 10 min at 10,000×g and finally the postmitichondirial supernatant was centrifuged at 100,000×g for 60 min using ultracentrifuge (Beckman). The microsomal pellet was isolated and homogenized gently in the storage buffer containing protease inhibitors cocktail. Protein concentration in the microsomal preparation was determined using a […] reaction assay kit with BSA as standards (Pierce). The absorbance at 562 nm of standards (BSA at 1, 0.5, 0.25, 0.125, and 0.0625 mg/ml) and 3 dilutions of microsomes samples (⅕, 1/10 and 1/20) was determined using an automatic microplate reader (μQuant, BioTek instruments Inc.). The protein concentration directly calculated by the software (KCJunior). […] Microsomes were assessed for P450 content by carbon monoxide assay and total P450 content was determined at 3 nmol/ml. […]

The source of these data is patent publication US7335756B2, “Retinoic acid metabolizing cytochrome P450” (Cytochroma Inc., priority 2001, dated 2008).

Consider `CC1=C(/C=C/C(C)=C/C=C/C(C)=C/C(=O)O)C(C)(C)CCC1` [ATRA, all-trans-retinoic-acid], for which the IC50 on P450RAI-3 [1] and on P450RAI-3 [3] was 20 nM each time. Further, the “metabolism by P450RAI-3-infected Sf9-cells” value at P450RAI-3 [2] was “metabolized ATRA and converted it to water-soluble metabolites”.
